Assays:
wild oat = assay: Test E wild oat; assay type: in vivo, Avena fatua; details: Preemergence
green foxtail = assay: Test E green foxtail; assay type: in vivo, Setaria viridis; details: Preemergence
bedstraw = assay: Test B pre/postemergence bedstraw; assay type: in vivo, Galium aparine
Procedure, shortened: (§1)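 Herbicidal effect was estimated by eye on a ten-point control scale after plants spent twelve to sixteen days in a greenhouse following soil or foliar treatment. Foliar sprays targeted plants at one to four leaves; all doses were formulated in a non-phytotoxic solvent with surfactant.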

winter barley = assay: Test E winter barley; assay type: in vivo, Hordeum vulgare; details: Preemergence
Italian ryegrass = assay: Test E Italian ryegrass; assay type: in vivo, Lolium multiflorum; details: Preemergence
winter wheat [1] = assay: Test E winter wheat; assay type: in vivo, Triticum aestivum; details: Postemergence
Procedure, shortened: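 Greenhouse-grown plants are treated (postemergence: 1- to 4-leaf stage, sandy loam/potting mix 60:40), then evaluated visually versus untreated controls some 21 to 28 days later.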

blackgrass [2] = assay: Test B pre/postemergence blackgrass; assay type: in vivo, Alopecurus myosuroides
Procedure, shortened: as §1

velvetleaf = assay: Test B pre/postemergence velvetleaf; assay type: in vivo, Abutilon theophrasti
Procedure, shortened: as §1

blackgrass [3] = assay: Test E blackgrass; assay type: in vivo, Alopecurus myosuroides; details: Preemergence
winter wheat [4] = assay: Test E winter wheat; assay type: in vivo, Triticum aestivum; details: Preemergence
wheat = assay: Test B pre/postemergence wheat; assay type: in vivo, Triticum aestivum
Procedure, shortened: as §1

[5] = Rate 62 g/ha, 0 to 100 scale, 0 no effect, 100 complete control
[6] = Rate 125 g/ha, 0 to 100 scale (0 no effect, 100 complete control)
[7] = Postemergence, Rate 250 g/ha, scale 0 to 10, 0 no effect, 10 complete control
[8] = Preemergence, Rate 62 g/ha, scale 0 to 10 (0 no effect, 10 complete control)
[9] = Preemergence, Rate 125 g/ha, scale 0 to 10 (0 no effect, 10 complete control)
[10] = Preemergence, Rate 250 g/ha, scale of 0 to 10 where 0 is no effect and 10 is complete control
[11] = Preemergence, Rate 500 g/ha, scale 0 to 10 (0 no effect, 10 complete control)
[12] = Postemergence, Rate 125 g/ha, scale of 0 to 10 where 0 is no effect and 10 is complete control
[13] = Rate 62 g/ha, Postemergence, scale of 0 to 10 where 0 is no effect and 10 is complete control
[14] = Rate 500 g/ha, Postemergence, scale 0 to 10, 0 no effect, 10 complete control
[15] = Preemergence, Rate 125 g/ha, 0 is no effect, 10 is complete control
[16] = Rate 250 g/ha, Postemergence, scale 0 to 10, 0 is no effect, 10 is complete control
[17] = Rate 500 g/ha, 0 to 100 scale (0 no effect, 100 complete control)
[18] = Preemergence, Rate 500 g/ha, scale of 0 to 10 where 0 is no effect and 10 is complete control
[19] = Rate 250 g/ha, 0 to 100 scale, 0 no effect, 100 complete control
[20] = Rate 250 g/ha, 0 to 100 scale, 0 is no effect, 100 is complete control
[21] = Rate 500 g/ha, 0 to 100 scale, 0 is no effect, 100 is complete control
[22] = Postemergence, Rate 125 g/ha, scale 0 to 10, 0 is no effect, 10 is complete control
[23] = Postemergence, Rate 250 g/ha, scale 0 to 10, 0 is no effect, 10 is complete control
[24] = Rate 1000 g/ha, 0 to 100 scale, 0 no effect, 100 complete control
[25] = Preemergence, Rate 62 g/ha, scale of 0 to 10 where 0 is no effect and 10 is complete control
[26] = Rate 62 g/ha, Postemergence, scale 0 to 10 (0 no effect, 10 complete control)
[27] = Rate 125 g/ha, Postemergence, scale of 0 to 10 where 0 is no effect and 10 is complete control
[28] = Rate 250 g/ha, Postemergence, scale of 0 to 10 where 0 is no effect and 10 is complete control

CC(C)N(C(=O)n1oc(=O)n(C(C)C)c1=O)c1ccccc1 [Compound 113]
3: Wheat plant response rating (wheat; [12])
20: Plant response rating, Wild oat (wild oat; [5])
40: Plant response rating, Wheat (winter) (winter wheat [4]; [5])
4: Bedstraw plant response rating (bedstraw; [8]) | Bedstraw plant response rating (bedstraw; Rate 125 g/ha, Postemergence, scale 0 to 10, 0 no effect, 10 complete control) | Wheat plant response rating (0 to 10 scale) (wheat; [15]) | Plant response rating, Wheat (wheat; [16])
7: Bedstraw plant response rating (bedstraw; [7]) | Plant response rating, Bedstraw (bedstraw; [10]) | Velvetleaf plant response rating (0 to 10 scale) (velvetleaf; [15]) | Plant response rating, Velvetleaf (velvetleaf; [16]) | Plant response rating, Wheat (wheat; [10])
2: Wheat plant response rating (wheat; [8])
50: Plant response rating, I. Ryegrass (Italian ryegrass; [5]) | Plant response rating, I. Ryegrass (Italian ryegrass; [6]) | Plant response rating, Wheat (winter) (winter wheat [4]; [6])
70: Plant response rating, Green foxtail (green foxtail; [6]) | Plant response rating, Wheat (winter) (winter wheat [1]; Rate 250 g/ha, 0 to 100 scale (0 no effect, 100 complete control))
0: Velvetleaf plant response rating (velvetleaf; [13])
1: Bedstraw plant response rating (bedstraw; Postemergence, Rate 62 g/ha, scale 0 to 10, 0 is no effect, 10 is complete control) | Velvetleaf plant response rating (velvetleaf; [12]) | Wheat plant response rating (wheat; [13])
30: Plant response rating, Wild oat (wild oat; [6]) | Plant response rating, Wheat (winter) (winter wheat [1]; Rate 125 g/ha, 0 to 100 scale) | Plant response rating, Blackgrass (blackgrass [3]; [6])
8: Bedstraw plant response rating (bedstraw; [11]) | Blackgrass plant response rating (blackgrass [2]; [12]) | Blackgrass plant response rating (blackgrass [2]; [7]) | Blackgrass plant response rating (blackgrass [2]; [8]) | Blackgrass plant response rating (blackgrass [2]; [13]) | Blackgrass plant response rating (blackgrass [2]; [14]) | Plant response rating, Velvetleaf (velvetleaf; [10]) | Velvetleaf plant response rating (velvetleaf; [11]) | Velvetleaf plant response rating (velvetleaf; [14]) | Wheat plant response rating (wheat; [11])
15: Plant response rating, Wheat (winter) (winter wheat [1]; Rate 62 g/ha, 0 to 100 scale)
100: Plant response rating, I. Ryegrass (Italian ryegrass; Rate 250 g/ha, 0 to 100 scale)
6: Plant response rating, Bedstraw (bedstraw; [9]) | Velvetleaf plant response rating (velvetleaf; [8]) | Wheat plant response rating (wheat; [14])
9: Plant response rating, Blackgrass (blackgrass [2]; [9])
55: Plant response rating, Green foxtail (green foxtail; [5])
10: Plant response rating, Barley (winter) (winter barley; [5]) | Plant response rating, Barley (winter) (winter barley; [6]) | Plant response rating, Blackgrass (blackgrass [2]; [10]) | Blackgrass plant response rating (blackgrass [2]; [11])
85: Plant response rating, Green foxtail (green foxtail; Rate 250 g/ha, 0 to 100 scale) | Plant response rating, Barley (winter) (winter barley; Rate 250 g/ha, 0 to 100 scale) | Plant response rating, Blackgrass (blackgrass [3]; Rate 250 g/ha, 0 to 100 scale)
60: Plant response rating, Blackgrass (blackgrass [3]; [5]) | Plant response rating, Wheat (winter) (winter wheat [4]; Rate 250 g/ha, 0 to 100 scale)

CC1CC1n1c(=O)on(C(=O)N(c2ccc(F)cc2F)C(C)C)c1=O (stereo not shown) [Compound 372]
100: Plant response rating, Green foxtail (green foxtail; [17]) | Plant response rating, Blackgrass (blackgrass [3]; [17])
7: Plant response rating, Blackgrass (blackgrass [2]; [23]) | Velvetleaf plant response rating (velvetleaf; [18])
5: Plant response rating, Blackgrass (blackgrass [2]; [8]) | Velvetleaf plant response rating (0 to 10 scale) (velvetleaf; Preemergence, Rate 125 g/ha)
60: Plant response rating, Wild oat (wild oat; Rate 250 g/ha, 0 to 100 scale) | Plant response rating, Green foxtail (green foxtail; [6]) | Plant response rating, Green foxtail (green foxtail; Rate 250 g/ha, 0 to 100 scale) | Plant response rating, Barley (winter) (winter barley; [6]) | Plant response rating, I. Ryegrass (Italian ryegrass; [6]) | Plant response rating, Blackgrass (blackgrass [3]; Rate 250 g/ha, 0 to 100 scale) | Plant response rating, Wheat (winter) (winter wheat [4]; [6])
80: Plant response rating, Wild oat (wild oat; [17]) | Plant response rating, Wheat (winter) (winter wheat [1]; [21])
6: Blackgrass plant response rating (0 to 10 scale) (blackgrass [2]; Preemergence, Rate 125 g/ha) | Velvetleaf plant response rating (velvetleaf; [10]) | Wheat plant response rating (wheat; [18])
2: Bedstraw plant response rating (0 to 10 scale) (bedstraw; Preemergence, Rate 125 g/ha) | Plant response rating, Velvetleaf (velvetleaf; [23]) | Plant response rating, Velvetleaf (velvetleaf; [14]) | Plant response rating, Wheat (wheat; [14])
70: Plant response rating, Barley (winter) (winter barley; [19]) | Plant response rating, Barley (winter) (winter barley; [17]) | Plant response rating, I. Ryegrass (Italian ryegrass; Rate 250 g/ha, 0 to 100 scale) | Plant response rating, Wheat (winter) (winter wheat [1]; [20]) | Plant response rating, Blackgrass (blackgrass [3]; [6]) | Plant response rating, Wheat (winter) (winter wheat [4]; [17])
4: Plant response rating, Blackgrass (blackgrass [2]; [22]) | Blackgrass plant response rating (blackgrass [2]; [13])
50: Plant response rating, Wild oat (wild oat; [6]) | Plant response rating, Wheat (winter) (winter wheat [4]; Rate 250 g/ha, 0 to 100 scale)
0: Plant response rating, Bedstraw (bedstraw; [8]) | Plant response rating, Velvetleaf (velvetleaf; [22]) | Velvetleaf plant response rating (velvetleaf; [13]) | Plant response rating, Wheat (wheat; [22]) | Plant response rating, Wheat (wheat; [23]) | Plant response rating, Wheat (wheat; [8]) | Wheat plant response rating (0 to 10 scale) (wheat; Preemergence, Rate 125 g/ha) | Wheat plant response rating (wheat; [10]) | Wheat plant response rating (wheat; [13])
85: Plant response rating, I. Ryegrass (Italian ryegrass; [17])
65: Plant response rating, Wheat (winter) (winter wheat [1]; Rate 125 g/ha, 0 to 100 scale, 0 is no effect, 100 is complete control)
10: Bedstraw plant response rating (bedstraw; [10]) | Bedstraw plant response rating (bedstraw; [18]) | Blackgrass plant response rating (blackgrass [2]; [10]) | Blackgrass plant response rating (blackgrass [2]; [18]) | Plant response rating, Blackgrass (blackgrass [2]; [14])
3: Plant response rating, Velvetleaf (velvetleaf; [8])

CCN(C(=O)n1oc(=O)n(C(C)C)c1=O)C1CCCCC1 [Compound 309]
60: Plant response rating, I. Ryegrass (Italian ryegrass; [17]) | Plant response rating, Blackgrass (blackgrass [3]; Rate 250 g/ha, 0 to 100 scale) | Plant response rating, Blackgrass (blackgrass [3]; [17])
80: Plant response rating, Wheat (winter) (winter wheat [1]; Rate 1000 g/ha, 0 to 100 scale where 0 is no effect and 100 is complete control)
6: Blackgrass plant response rating (blackgrass [2]; [18])
65: Plant response rating, Green foxtail (green foxtail; Rate 250 g/ha, 0 to 100 scale) | Plant response rating, Wheat (winter) (winter wheat [4]; [17])
75: Plant response rating, Blackgrass (blackgrass [3]; [24])
50: Plant response rating, Wild oat (wild oat; Rate 250 g/ha, 0 to 100 scale) | Plant response rating, Wild oat (wild oat; [17]) | Plant response rating, Barley (winter) (winter barley; [19]) | Plant response rating, I. Ryegrass (Italian ryegrass; Rate 250 g/ha, 0 to 100 scale) | Plant response rating, Wheat (winter) (winter wheat [1]; [20])
100: Plant response rating, Green foxtail (green foxtail; [17]) | Plant response rating, Green foxtail (green foxtail; [24])
20: Plant response rating, Barley (winter) (winter barley; [17])
70: Plant response rating, Wild oat (wild oat; [24]) | Plant response rating, Barley (winter) (winter barley; [24]) | Plant response rating, I. Ryegrass (Italian ryegrass; [24]) | Plant response rating, Wheat (winter) (winter wheat [1]; [21]) | Plant response rating, Wheat (winter) (winter wheat [4]; Rate 250 g/ha, 0 to 100 scale) | Plant response rating, Wheat (winter) (winter wheat [4]; [24])
2: Blackgrass plant response rating (blackgrass [2]; [10]) | Blackgrass plant response rating (blackgrass [2]; [14]) | Velvetleaf plant response rating (velvetleaf; [18])
0: Bedstraw plant response rating (bedstraw; [25]) | Bedstraw plant response rating (0 to 10 scale) (bedstraw; Preemergence, Rate 125 g/ha) | Bedstraw plant response rating (bedstraw; [10]) | Bedstraw plant response rating (bedstraw; [18]) | Bedstraw plant response rating (bedstraw; [26]) | Bedstraw plant response rating (bedstraw; [27]) | Plant response rating, Bedstraw (bedstraw; [28]) | Bedstraw plant response rating (bedstraw; [14]) | Blackgrass plant response rating (blackgrass [2]; [25]) | Blackgrass plant response rating (0 to 10 scale) (blackgrass [2]; Preemergence, Rate 125 g/ha) | Blackgrass plant response rating (blackgrass [2]; [26]) | Blackgrass plant response rating (blackgrass [2]; [27]) | Plant response rating, Blackgrass (blackgrass [2]; [28]) | Velvetleaf plant response rating (velvetleaf; [25]) | Velvetleaf plant response rating (0 to 10 scale) (velvetleaf; Preemergence, Rate 125 g/ha) | Velvetleaf plant response rating (velvetleaf; [10]) | Velvetleaf plant response rating (velvetleaf; [26]) | Velvetleaf plant response rating (velvetleaf; [27]) | Plant response rating, Velvetleaf (velvetleaf; [28]) | Wheat plant response rating (wheat; [25]) | Wheat plant response rating (0 to 10 scale) (wheat; Preemergence, Rate 125 g/ha) | Wheat plant response rating (wheat; [10]) | Wheat plant response rating (wheat; [18]) | Wheat plant response rating (wheat; [26]) | Wheat plant response rating (wheat; [27]) | Plant response rating, Wheat (wheat; [28])
